Reference: ChEMBL document CHEMBL4312031, “Discovery of candesartan cilexetic as a novel neddylation inhibitor for suppressing tumor growth” (Eur J Med Chem, 2020)
The source made the active and inactive calls. The rule behind the calls is not given here.

Columns and labels:
[1] = system: EKVX; experiment: Antiproliferative activity against human EKVX cells measured after 48 hrs by CCK8 assay; type: functional, cell-based
[2] = system: HepG2; experiment: Antiproliferative activity against human HepG2 cells measured after 48 hrs by CCK8 assay; type: functional, cell-based; conditions: HepG2, 48 h
[3] = system: Huh-7; experiment: Antiproliferative activity against human HuH7 cells measured after 48 hrs by CCK8 assay; type: functional, cell-based; conditions: Huh-7, 48 h
[4] = system: T47D; experiment: Antiproliferative activity against human T47D cells measured after 48 hrs by CCK8 assay; type: functional, cell-based
[5] = system: MKN-45; experiment: Antiproliferative activity against human MKN45 cells measured after 48 hrs by CCK8 assay; type: functional, cell-based; conditions: MKN-45, 48 h
[6] = system: MGC-803; experiment: Antiproliferative activity against human MGC803 cells measured after 48 hrs by CCK8 assay; type: functional, cell-based; conditions: MGC-803, 48 h
[7] = system: PLC; experiment: Antiproliferative activity against human PLC cells measured after 48 hrs by CCK8 assay; type: functional, cell-based
[8] = system: BEAS-2B; experiment: Cytotoxicity against human BEAS2B cells after 48 hrs by CCK-8 assay; type: cell-based
[9] = system: 16HBE14o-; experiment: Cytotoxicity against human 16HBE cells after 48 hrs by CCK-8 assay; type: cell-based
[10] = system: A549; experiment: Cell cycle arrest in human A549 cells assessed as accumulation at G1 phase at 25 uM measured after 24 hrs by propidium iodide/RNase A staining based flow cytometry analysis (reference value: 63.84 %); type: functional
[11] = system: A549; experiment: Cell cycle arrest in human A549 cells assessed as accumulation at G2 phase at 25 uM measured after 24 hrs by propidium iodide/RNase A staining based flow cytometry analysis (reference value: 12.69 %); type: functional
[12] = system: A549; experiment: Cell cycle arrest in human A549 cells assessed as accumulation at G1 phase at 50 uM measured after 24 hrs by propidium iodide/RNase A staining based flow cytometry analysis (reference value: 63.84 %); type: functional
[13] = system: A549; experiment: Cell cycle arrest in human A549 cells assessed as accumulation at S phase at 50 uM measured after 24 hrs by propidium iodide/RNase A staining based flow cytometry analysis (reference value: 21.54 %); type: functional
[14] = system: A549; experiment: Cell cycle arrest in human A549 cells assessed as accumulation at G2 phase at 50 uM measured after 24 hrs by propidium iodide/RNase A staining based flow cytometry analysis (reference value: 12.69 %); type: functional
[15] = system: A549; experiment: Cell cycle arrest in human A549 cells assessed as accumulation at sub-G1 phase at 50 uM measured after 24 hrs by propidium iodide/RNase A staining based flow cytometry analysis (reference value: 0.89 %); type: functional
[16] = system: A549; experiment: Cell cycle arrest in human A549 cells assessed as accumulation at G1 phase at 75 uM measured after 24 hrs by propidium iodide/RNase A staining based flow cytometry analysis (reference value: 63.84 %); type: functional
[17] = system: A549; experiment: Cell cycle arrest in human A549 cells assessed as accumulation at S phase at 75 uM measured after 24 hrs by propidium iodide/RNase A staining based flow cytometry analysis (reference value: 21.54 %); type: functional
[18] = system: A549; experiment: Induction of apoptosis in human A549 cells assessed as late apoptotic cells at 25 uM measured after 48 hrs by AnnexinV-FITC/propidium iodide staining based FACS analysis (reference value: 1.71 %); type: functional
[19] = system: A549; experiment: Induction of apoptosis in human A549 cells assessed as early apoptotic cells at 50 uM measured after 48 hrs by AnnexinV-FITC/propidium iodide staining based FACS analysis (reference value: 2.19 %); type: functional
[20] = molecular target: T1, NEDD8/Cullin-1 (Homo sapiens) (UniProt Q13616+Q15843); experiment: Inhibition of Nedd8-cullin1 (unknown origin) adduct formation assessed as decrease in cullin1 neddylation at 50 uM preincubated for 10 mins followed by ATP addition and measured after 30 mins by immunoblot analysis; type: protein assay
[21] = molecular target: T1, NEDD8/Cullin-1 (Homo sapiens); experiment: Inhibition of Nedd8-cullin1 adduct formation in human A549 cells assessed as decrease in cullin1 neddylation at 100 uM incubated for 6 to 12 hrs by Western blot analysis; type: cell-based
[22] = molecular target: T1, NEDD8/Cullin-1 (Homo sapiens); experiment: Inhibition of Nedd8-cullin1 (unknown origin) assessed as decrease in cullin1-Nedd8 adduct formation at 25 to 50 uM preincubated for 10 mins followed by ATP addition and measured after 30 mins by immunoblot analysis; type: protein assay
[23] = molecular target: T1, NEDD8/Cullin-1 (Homo sapiens); experiment: Competitive inhibition of Nedd8-cullin1 (unknown origin) adduct formation at 12.5 to 50 uM assessed as substrate Vmax by Lineweaver-Burk plot analysis; type: protein assay
[24] = molecular target: T1, NEDD8/Cullin-1 (Homo sapiens); experiment: Competitive inhibition of Nedd8-cullin1 (unknown origin) adduct formation at 12.5 to 50 uM assessed as increase in substrate Km by Lineweaver-Burk plot analysis; type: protein assay
[25] = system: A549; experiment: Antiproliferative activity against human A549 cells measured after 48 hrs by CCK8 assay; type: functional, cell-based; conditions: A549, 48 h
[26] = molecular target: T2, NEDD8-conjugating enzyme Ubc12 (Homo sapiens) (UniProt P61081); experiment: Inhibition of UBC12 in human A549 cells assessed as decrease in Cullin3-Nedd8 adduct level at 50 uM measured after 6 to 12 hrs by Western blot analysis; type: cell-based
T2 sequence (whole entry): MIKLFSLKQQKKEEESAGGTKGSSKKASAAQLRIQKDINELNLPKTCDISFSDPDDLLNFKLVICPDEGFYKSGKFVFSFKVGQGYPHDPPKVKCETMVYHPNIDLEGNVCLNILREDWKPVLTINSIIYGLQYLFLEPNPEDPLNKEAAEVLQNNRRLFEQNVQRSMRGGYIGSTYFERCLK

[27] = molecular target: T2, NEDD8-conjugating enzyme Ubc12 (Homo sapiens); experiment: Inhibition of UBC12 in human A549 cells assessed as decrease in Cullin4a-Nedd8 adduct level at 50 uM measured after 6 to 12 hrs by Western blot analysis; type: cell-based
[28] = molecular target: SUMO-conjugating enzyme UBC9 (Homo sapiens) (UniProt P63279); experiment: Inhibition of Ubc9 in human A549 cells assessed as reduction in protein sumoylation by measuring Ubc9-Sumo adduct formation at 50 to 100 uM by Western blot analysis; type: cell-based
[29] = molecular target: T3, Ubiquitin-conjugating enzyme E2 C (Homo sapiens) (UniProt O00762); experiment: Inhibition of UbcH10 in human A549 cells assessed as reduction in protein ubiquitination by measuring Ubc10-ub adduct formation at 50 to 100 uM by Western blot analysis; type: cell-based
T3 sequence (whole entry): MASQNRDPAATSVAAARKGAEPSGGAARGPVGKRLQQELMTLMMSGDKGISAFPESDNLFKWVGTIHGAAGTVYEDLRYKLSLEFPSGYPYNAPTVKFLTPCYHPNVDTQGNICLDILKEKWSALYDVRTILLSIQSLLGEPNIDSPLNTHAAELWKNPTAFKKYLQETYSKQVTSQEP

[30] = system: A549; experiment: Effect on SUMO1 level in human A549 cells by Western blot analysis; type: functional, cell-based
[31] = system: A549; experiment: Inhibition of colony formation in human A549 cells measured after 10 days; type: functional, cell-based
[32] = system: A549; experiment: Inhibition of cullin-RING ligase in human A549 cells assessed as accumulation of Wee1 level at 50 to 125 uM and measured after 6 to 12 hrs by Western blot analysis; type: cell-based
[33] = system: A549; experiment: Inhibition of cullin-RING ligase in human A549 cells assessed as accumulation of p27 level at 50 to 125 uM and measured after 6 to 12 hrs by Western blot analysis; type: cell-based
[34] = system: A549; experiment: Effect on Ub-modified protein level in human A549 cells by Western blot analysis; type: functional, cell-based

T1 sequence (Q13616 whole entry, looked up): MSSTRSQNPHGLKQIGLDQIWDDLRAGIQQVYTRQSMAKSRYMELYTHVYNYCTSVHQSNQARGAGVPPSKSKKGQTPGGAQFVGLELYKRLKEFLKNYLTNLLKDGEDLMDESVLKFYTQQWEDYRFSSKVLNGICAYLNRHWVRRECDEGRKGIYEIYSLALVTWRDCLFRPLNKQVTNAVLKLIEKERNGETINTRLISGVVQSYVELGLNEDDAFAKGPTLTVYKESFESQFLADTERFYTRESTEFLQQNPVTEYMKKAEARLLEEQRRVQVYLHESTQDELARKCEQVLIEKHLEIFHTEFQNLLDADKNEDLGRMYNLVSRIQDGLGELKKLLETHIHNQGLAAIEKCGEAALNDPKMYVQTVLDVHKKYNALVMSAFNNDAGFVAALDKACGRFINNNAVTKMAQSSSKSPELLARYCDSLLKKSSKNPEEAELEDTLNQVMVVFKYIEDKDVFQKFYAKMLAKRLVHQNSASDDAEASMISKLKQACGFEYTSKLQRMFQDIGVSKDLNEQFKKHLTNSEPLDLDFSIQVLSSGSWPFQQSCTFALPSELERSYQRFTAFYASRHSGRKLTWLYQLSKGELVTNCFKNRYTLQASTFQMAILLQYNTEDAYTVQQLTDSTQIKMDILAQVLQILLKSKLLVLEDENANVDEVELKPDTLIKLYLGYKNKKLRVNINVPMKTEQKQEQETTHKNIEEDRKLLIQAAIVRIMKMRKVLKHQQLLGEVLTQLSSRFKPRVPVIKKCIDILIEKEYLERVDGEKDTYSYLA
T1 sequence (Q15843 whole entry, looked up): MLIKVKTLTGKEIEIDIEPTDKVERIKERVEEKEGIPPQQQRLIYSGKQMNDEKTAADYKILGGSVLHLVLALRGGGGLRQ
SUMO-conjugating enzyme UBC9 (Homo sapiens), sequence (P63279 whole entry): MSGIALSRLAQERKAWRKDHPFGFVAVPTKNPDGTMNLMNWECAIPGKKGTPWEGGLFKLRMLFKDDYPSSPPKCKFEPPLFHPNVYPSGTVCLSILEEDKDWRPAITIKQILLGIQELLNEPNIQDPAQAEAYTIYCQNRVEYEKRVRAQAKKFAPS

IC50 [2]: > 100 µM
IC50 [3]: > 100 µM
IC50 [4]: 64.3 µM
IC50 [5]: 68.9 µM
IC50 [6]: 57.1 µM
inhibition [20]: Active
inhibition [21]: Active
inhibition [22]: Active
inhibition [23]: Active
inhibition [24]: Active
IC50 [25]: 63.9 µM
inhibition [26]: Active
inhibition [27]: Active
inhibition [28]: inactive
inhibition [29]: inactive
SMILES: CCOc1nc2cccc(C(=O)OC(C)OC(=O)OC3CCCCC3)c2n1Cc1ccc(-c2ccccc2-c2nn[nH]n2)cc1 (centres undefined) [CANDESARTAN CILEXETIL]
IC50 [1]: > 100 µM
IC50 [7]: 60.2 µM
IC50 [8]: 89.9 µM
IC50 [9]: > 100 µM
Activity [10]: 63.02%
Activity [11]: 6.48%
Activity [12]: 60.18%
Activity [13]: 11.53%
Activity [14]: 6.79%
Activity [15]: 20.35%
Activity [16]: 40.44%
Activity [17]: 19.74%
Activity [18]: 5.5%
Activity [19]: 11.77%
Activity [30]: inactive
inhibition [31]: Dose-dependent effect
inhibition [32]: Active
inhibition [33]: Active
Activity [34]: Active
